Values quoted from earlier work as cited in PMC7536072, “Molecular and functional characterization of somatostatin-type signalling in a deuterostome invertebrate” (Open Biology, 2020).
Bridges are numbered along the chain shown (N, C = ends). Where no end group is shown, it is not given here.

Experiments:
growth hormone release = details: ref [1]; cited from earlier work
Description: (§1) Subsequently, an N-terminally extended isoform (SS28) was identified, with both SS14 and SS28 being derived from the same precursor protein [5]. Five G-protein-coupled receptors, SSTR1, SSTR2, SSTR3, SSTR4 and SSTR5, mediate effect ...

mammals = details: intracerebroventricular, cited from earlier work
Description: as §1

insulin release = details: ref [2]; cited from earlier work
Description: as §1

SS: tetradecapeptide with a disulfide bridge linking cysteine residues at positions 3 and 14 (SS14) (AGCKNFFWKTFTSC; disulfide 3-14; UniProt P61278 103-116, looked up)
effect on growth hormone release (growth hormone release): inhibits growth hormone release | effect on food intake and drinking (mammals; ref [12],[13]): stimulation of food intake and drinking | anxiolytic effect (mammals; ref [14]): anxiolysis | effect on insulin release (insulin release): inhibits insulin release
